Data taken from patent publication US11795460B2, “Compositions and methods for TTR gene editing and treating ATTR amyloidosis” (Intellia Therapeutics, Inc., priority 2017, dated 2023).
Strand notation (5' to 3'): a small letter for the sugar, then the base; units joined by * are phosphorothioate-linked, units joined directly phosphodiester-linked; [ ] holds rarer units or linkages, { } end groups; capitals alone tell only the bases. m = 2'-O-methyl; r = 2'-OH (RNA)

B1: G000489: TTR sgRNA modified sequence, Human, SEQ ID No. 96; guide sequence of CR003344 (nucleic acid)
guide: mU*mU*mU*rGrArCrCrArUrCrArGrArGrGrArCrArCrUrGrUrUrUrUrArGrAmGmCmUmAmGmAmAmAmUmAmGmCrArArGrUrUrArArArArUrArArGrGrCrUrArGrUrCrCrGrUrUrArUrCrAmAmCmUmUmGmAmAmAmAmAmGmUmGmGmCmAmCmCmGmAmGmUmCmGmGmUmGmCmU*mU*mU*mU

Legend:
TTR [1] = assay: TTR editing in primary human hepatocytes electroporated with Spy Cas9 protein loaded with dgRNAs (Table 7); type: cell-based; settings: dgRNA electroporated with Spy Cas9 protein (RNP)
In short: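 Primary human or cynomolgus hepatocytes electroporated (Lonza P3 buffer, program EX-147) with Spy Cas9 RNP carrying pre-annealed crRNA/trRNA dual guides. Genomic DNA harvested at 24, 48 or 72 h; target amplicons sequenced by Illumina MiSeq. Percent editing = reads with indels or substitutions over total reads.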

TTR [2] = assay: TTR editing in primary human hepatocytes transfected with Spy Cas9 mRNA and dgRNAs (Table 9); type: cell-based; settings: dgRNA co-transfected with Spy Cas9 mRNA (SEQ ID NO:2)
In short: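 PHH sequentially lipofected with Spy Cas9 mRNA (100 ng), then crRNA plus tracrRNA (25 nM each) dual-guide lipoplex. Cells harvested 24, 48 or 72 h post-transfection; TTR target amplicons sequenced on Illumina MiSeq, editing given as percent reads with indels or substitutions over total reads.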

off-target genomic sites = assay: Off-target oligo insertion based assay in HEK293_Cas9 cells, dgRNAs and sgRNAs (Tables 23, 24); type: cell-based, human
Protocol: An oligo insertion based assay (See, e.g., Tsai et al., Nature Biotechnology 33, 187-197; 2015) was used to determine potential off-target genomic sites cleaved by Cas9 targeting TTR. Forty-five dgRNAs from Table 1 (and two control guides with known off-target profiles) were screened in the HEK293 Cas9 cells. The human embryonic kidney adenocarcinoma cell line HEK293 constitutively expressing Spy Cas9 (“HEK293_Cas9”) was cultured in DMEM media supplemented with 10% fetal bovine serum and 500 μg/ml G418. Cells were plated at a density of 30,000 cells/well in a 96-well plate 24 hours prior to transfection. Cells were transfected with Lipofectamine RNAiMAX (ThermoFisher, Cat. 13778150) per the manufacturer's protocol. Cells were transfected with a lipoplex containing individual crRNA (15 nM), trRNA (15 nM), and donor oligo with (10 nM) Lipofectamine RNAiMAX (0.3 μL/well) and OptiMem. Cells were lysed 24 hours post transfection and genomic DNA was extracting using Zymo's Quick gDNA 96 Extraction kit (catalog #D3012) following the manufacturer's recommended protocol. The gDNA was quantified using the Qubit High Sensitivity dsDNA kit (Life Technologies). Libraries were prepared per the previously described method in Tsai et al, 2015 with minor modifications. Sequencing was performed on Illumina's MiSeq and HiSeq 2500. The assay identified potential off-target sites for some of the crRNAs which are plotted in FIG. 2.
Additionally, a subset of the guides was assessed for off-target potential as modified sgRNAs in the Hek_Cas9 cells via the oligo based insertion method described above. The off-target results were plotted in FIG. 4.

Molecule | Avg % Deletion (TTR [1]) | Avg % Edit (TTR [1]) | Avg % Insert (TTR [1]) | Avg % Deletion (TTR [2]) | Avg % Edit (TTR [2]) | Avg % Insert (TTR [2]) | # Sites (off-target integration sites detected) (off-target genomic sites; Table 24, TTR sgRNAs in HekCas9 cells, insertion detection method) | # Sites in HekCas9 cells (Example 5) (off-target genomic sites; Table 30, TTR sgRNAs, HekCas9 cells, repeated from Example 5 for comparison)
CCUCUGCAUGCUCAUGGAAU (tested as dual guide RNA, chemistry not given here) [CR003370] | 0.90% | 15.27% | 14.43% | 0.50% | 2.83% | 2.33% | – | –
ACCUCUGCAUGCUCAUGGAA (tested as dual guide RNA, chemistry not given here) [CR003371] | 1.87% | 16.20% | 14.47% | 0.73% | 3.40% | 2.67% | – | –
AUGCAGCUCUCCAGACUCAC (tested as dual guide RNA, chemistry not given here) [CR003358] | 0.80% | 5.70% | 4.93% | 1.17% | 3.90% | 2.73% | – | –
CUGGUAUUUGUGUCUGAGGC (tested as dual guide RNA, chemistry not given here) [CR003341] | 4.40% | 11.43% | 7.03% | 9.07% | 15.83% | 6.80% | – | –
UACUCACCUCUGCAUGCUCA (tested as dual guide RNA, chemistry not given here) [CR003372] | 1.77% | 12.17% | 10.47% | 0.63% | 1.77% | 1.13% | – | –
GCAUGGGCUCACAACUGAGG (tested as dual guide RNA, chemistry not given here) [CR003362] | 0.20% | 7.03% | 6.87% | 0.47% | 6.60% | 6.17% | – | –
CUGAGGAGGAAUUUGUAGAA (tested as dual guide RNA, chemistry not given here) [CR003364] | 6.53% | 23.30% | 16.93% | 8.93% | 15.63% | 6.73% | – | –
GCUGCAUGGGCUCACAACUG (tested as dual guide RNA, chemistry not given here) [CR003361] | 0.37% | 4.10% | 3.73% | 0.87% | 3.53% | 2.73% | – | –
AAUAGGAGUAGGGGCUCAGC (tested as dual guide RNA, chemistry not given here) [CR003384] | 0.23% | 1.87% | 1.73% | 0.20% | 1.70% | 1.50% | – | –
B1 | – | – | – | – | – | – | 19 | 19
